Test results as given in patent US8940897B2, “1,3,4-oxadiazole and 1,3,4-thiadiazole β-lactamase inhibitors” (priority 2012, dated 2015).
Structures can show the parent of a compound that is named as a salt.

System: bacterial strains that express the class D cephalosporinase OXA-15
Experiment: Synergy MIC / standard BLI potentiation MIC assay, strains expressing OXA-15;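 note: more active means a lower MIC or sMIC than Avibactam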
Type: cell-based, E. coli
Settings: in the presence of a β-lactam; comparator Avibactam (CCC)
Experimental: Unless otherwise indicated, the activity of the BLI compounds can be described by the MIC value obtained from a Synergy MIC assay or a BLI potentiation assay (e.g as described herein), both of which are run in the presence of a β-lactam.
The experimental protocol was performed according to Clinical and Laboratory Standards Institute (CLSI) guidelines with modifications as described below (CLSI guidelines can be derived from the CLSI document M07-A9 published in January 2012: “Methods for Dilution Antimicrobial Susceptibility Tests for Bacteria That Grow Aerobically; Approved Standard-Ninth Edition”).
To prepare for MIC testing, frozen glycerol stocks of clinical isolates (Klebsiella pneumoniae, Eschericia coli, Enterobacter spp, Citrobacter spp, or Pseudomonas aeruginosa) were used to streak for isolated colonies on rich, non-selective, tryptic soy agar containing 5% sheep's blood (TSAB). Frozen glycerol stocks of laboratory engineered, isogenic E. coli strains, which contain cloned β-lactamase expressing plasmids were used to streak for isolated colonies on rich, selective LB agar supplemented with 25 μg/mL tetracycline to maintain the plasmid. All strains were incubated at 37° C. for 18-24 hrs.
On the day of testing, primary cultures were started by scraping off 5-10 colonies from the TSAB plates containing clinical strains or the tetracycline supplemented LB plates containing engineered strains. The clinical strain material was suspended in ˜5 mL of cation adjusted Mueller Hinton Broth (CAMHB) in 14 mL culture tubes. The engineered strain material was suspended in CAMHB (supplemented with 25 μg/mL tetracycline) in 14 mL culture tubes. All strains were incubated at 37° C. with aeration (200 rpm) for ˜2 hrs until the optical density at 600 nm (OD600) was ≧0.1.
The two compound components of the assay were each diluted in CAMHB and added to the 96-well broth microdilution assay plates. 50 μL of the β-lactam was added to each well of the assay plate in 2-fold dilutions with final concentrations ranging from 128 to 0.13 μg/mL. 25 μL of the BLI compound was added to all wells in the broth microdilution plates at a final concentration of 4 μg/mL. Inoculum cultures were prepared by standardizing the primary cultures to OD600=0.1 and then adding 20 μL of the adjusted primary culture per 1 mL CAMHB for clinical strains or CAMHB (supplemented with tetracycline at 100 μg/mL) for engineered strains, so that the final inoculum density was ˜10^5 colony forming units per milliliter. Diluted inoculum cultures were used to inoculate 25 μl, per well in 96-well broth microdilution assay plates. The final volume of each well was 100 μL and contained a β-lactam at different concentrations, a BLIcompound at 4 μg/mL concentration, the bacterial culture at an OD600 of approximately 0.001 and when necessary tetracycline at 25 μg/mL.
Plates were incubated for 18-20 hours at 37° C. with aeration (200 rpm). Following incubation, growth was confirmed visually placing plates over a viewing apparatus (stand with a mirror underneath) and then OD600 was measured using a SpectraMax 340PC384 plate reader (Molecular Devices, Sunnyvale, Calif.). Growth was defined as turbidity that could be detected with the naked eye or achieving minimum OD600 of 0.1. MIC values were defined as the lowest concentration producing no visible turbidity.
The synergy MIC (sMIC) assay determines the concentration of the BLI required to potentiate the activity of a fixed concentration of a β-lactam antibiotic against β-lactamase producing bacterial strains. The experimental protocol was performed according to Clinical and Laboratory Standards Institute (CLSI) guidelines with modifications as described below (CLSI guidelines can be derived from the CLSI document M07-A9 published in January 2012: “Methods for Dilution Antimicrobial Susceptibility Tests for Bacteria That Grow Aerobically; Approved Standard-Ninth Edition”). […]

Q: How did the “activity against bacterial strains that express OXA-15 β-lactamase compared with Avibactam” value (from here on “activity … compared with Avibactam”) turn out when `N=C(N)NCc1nnc([C@@H]2CC[C@@H]3CN2C(=O)N3OS(=O)(=O)O)o1` [Compound 704, (2S,5R)-2-(5-(guanidinomethyl)-1,3,4-oxadiazol-2-yl)-7-oxo-1,6-diazabicyclo[3.2.1]octan-6-yl hydrogen sulfate] was run?
A: more active than Avibactam

Q: How did the “activity … compared with Avibactam” value turn out when `Nc1nnc([C@@H]2CC[C@@H]3CN2C(=O)N3OS(=O)(=O)O)o1` [Compound 707, (2S,5R)-2-(5-amino-1,3,4-oxadiazol-2-yl)-7-oxo-1,6-diazabicyclo[3.2.1]octan-6-yl hydrogen sulfate] was run?
A: more active than Avibactam

Q: With `N=C(N)N1CCC(c2nnc([C@@H]3CC[C@@H]4CN3C(=O)N4OS(=O)(=O)O)o2)CC1` [Compound 712, (2S,5R)-2-(5-(1-carbamimidoylpiperidin-4-yl)-1,3,4-oxadiazol-2-yl)-7-oxo-1,6-diazabicyclo[3.2.1]octan-6-yl hydrogen sulfate] as the compound, how does the “activity … compared with Avibactam” value read?
A: more active than Avibactam

Q: With `O=C1N2C[C@@H](CC[C@H]2c2nnc(N3CCNCC3)o2)N1OS(=O)(=O)O` [Compound 713, (2S,5R)-7-oxo-2-(5-(piperazin-1-yl)-1,3,4-oxadiazol-2-yl)-1,6-diazabicyclo[3.2.1]octan-6-yl hydrogen sulfate] as the compound, how does the “activity … compared with Avibactam” value read?
A: more active than Avibactam

Q: For `N=C(N)NCCCc1nnc([C@@H]2CC[C@@H]3CN2C(=O)N3OS(=O)(=O)O)o1` [Compound 714, (2S,5R)-2-(5-(3-guanidinopropyl)-1,3,4-oxadiazol-2-yl)-7-oxo-1,6-diazabicyclo[3.2.1]octan-6-yl hydrogen sulfate], which “activity … compared with Avibactam” value is on record?
A: more active than Avibactam

Q: `NCC(O)c1nnc([C@@H]2CC[C@@H]3CN2C(=O)N3OS(=O)(=O)O)o1` (stereo partly drawn) [Compound 715, (2S,5R)-2-(5-(2-amino-1-hydroxyethyl)-1,3,4-oxadiazol-2-yl)-7-oxo-1,6-diazabicyclo[3.2.1]octan-6-yl hydrogen sulfate] was tested. Which “activity … compared with Avibactam” value did it give?
A: more active than Avibactam

Q: `NCCNCCc1nnc([C@@H]2CC[C@@H]3CN2C(=O)N3OS(=O)(=O)O)o1` [Compound 716, (2S,5R)-2-(5-(2-((2-aminoethyl)amino)ethyl)-1,3,4-oxadiazol-2-yl)-7-oxo-1,6-diazabicyclo[3.2.1]octan-6-yl hydrogen sulfate] was tested. Which “activity … compared with Avibactam” value did it give?
A: more active than Avibactam

Q: With `NCC(N)c1nnc([C@@H]2CC[C@@H]3CN2C(=O)N3OS(=O)(=O)O)o1` (stereo partly drawn) [Compound 717, (2S,5R)-2-(5-(1,2-diaminoethyl)-1,3,4-oxadiazol-2-yl)-7-oxo-1,6-diazabicyclo[3.2.1]octan-6-yl hydrogen sulfate] as the compound, how does the “activity … compared with Avibactam” value read?
A: more active than Avibactam

Q: For `O=C1N2C[C@@H](CC[C@H]2c2nnc(C3CCNCC3)s2)N1OS(=O)(=O)O` [Compound 719, (2S,5R)-7-oxo-2-(5-(piperidin-4-yl)-1,3,4-thiadiazol-2-yl)-1,6-diazabicyclo[3.2.1]octan-6-yl hydrogen sulfate], which “activity … compared with Avibactam” value is on record?
A: more active than Avibactam

Q: With `O=C1N2C[C@@H](CC[C@H]2c2nnc(CC3CNC3)o2)N1OS(=O)(=O)O` [Compound 725, (2S,5R)-2-(5-(azetidin-3-ylmethyl)-1,3,4-oxadiazol-2-yl)-7-oxo-1,6-diazabicyclo[3.2.1]octan-6-yl hydrogen sulfate] as the compound, how does the “activity … compared with Avibactam” value read?
A: more active than Avibactam

Q: For `NCC(O)Cc1nnc([C@@H]2CC[C@@H]3CN2C(=O)N3OS(=O)(=O)O)o1` (stereo partly drawn) [Compound 733, (2S,5R)-2-(5-(3-amino-2-hydroxypropyl)-1,3,4-oxadiazol-2-yl)-7-oxo-1,6-diazabicyclo[3.2.1]octan-6-yl hydrogen sulfate], which “activity … compared with Avibactam” value is on record?
A: more active than Avibactam

Q: `N=C(N)N[C@H]1C[C@H](c2nnc([C@@H]3CC[C@@H]4CN3C(=O)N4OS(=O)(=O)O)o2)C1` [Compound 748, (2S,5R)-2-(5-((1r,3S)-3-guanidinocyclobutyl)-1,3,4-oxadiazol-2-yl)-7-oxo-1,6-diazabicyclo[3.2.1]octan-6-yl hydrogen sulfate] was tested. Which “activity … compared with Avibactam” value did it give?
A: more active than Avibactam

Q: `N[C@H]1C[C@H](NCc2nnc([C@@H]3CC[C@@H]4CN3C(=O)N4OS(=O)(=O)O)o2)C1` [Compound 757, (2S,5R)-2-(5-(((1r,3S)-3-aminocyclobutyl)amino)methyl)-1,3,4-oxadiazol-2-yl)-7-oxo-1,6-diazabicyclo[3.2.1]octan-6-yl hydrogen sulfate] was tested. Which “activity … compared with Avibactam” value did it give?
A: more active than Avibactam

Q: For `O=C1N2C[C@@H](CC[C@H]2c2nnc(CNC3CCNCC3)o2)N1OS(=O)(=O)O` [Compound 769, (2S,5R)-7-oxo-2-(5-((piperidin-4-ylamino)methyl)-1,3,4-oxadiazol-2-yl)-1,6-diazabicyclo[3.2.1]octan-6-yl hydrogen sulfate], which “activity … compared with Avibactam” value is on record?
A: more active than Avibactam

Q: For `NC1CCN(c2nnc([C@@H]3CC[C@@H]4CN3C(=O)N4OS(=O)(=O)O)o2)CC1` [Compound 773, (2S,5R)-2-(5-(4-aminopiperidin-1-yl)-1,3,4-oxadiazol-2-yl)-7-oxo-1,6-diazabicyclo[3.2.1]octan-6-yl hydrogen sulfate], which “activity … compared with Avibactam” value is on record?
A: more active than Avibactam

Q: With `O=C1N2C[C@@H](CC[C@H]2c2nnc([C@@H]3CNCCN3)o2)N1OS(=O)(=O)O` [Compound 778, (2S,5R)-7-oxo-2-(5-((S)-piperazin-2-yl)-1,3,4-oxadiazol-2-yl)-1,6-diazabicyclo[3.2.1]octan-6-yl hydrogen sulfate] as the compound, how does the “activity … compared with Avibactam” value read?
A: more active than Avibactam

Q: With `N[C@H]1CC[C@@H](c2nnc([C@@H]3CC[C@@H]4CN3C(=O)N4OS(=O)(=O)O)o2)CC1` [Compound 780, (2S,5R)-2-(5-((1s,4R)-4-aminocyclohexyl)-1,3,4-oxadiazol-2-yl)-7-oxo-1,6-diazabicyclo[3.2.1]octan-6-yl hydrogen sulfate] as the compound, how does the “activity … compared with Avibactam” value read?
A: more active than Avibactam

Q: Which “activity … compared with Avibactam” value does the source give for `N[C@H]1CC[C@H](c2nnc([C@@H]3CC[C@@H]4CN3C(=O)N4OS(=O)(=O)O)o2)CC1` [Compound 781, (2S,5R)-2-(5-((1r,4S)-4-aminocyclohexyl)-1,3,4-oxadiazol-2-yl)-7-oxo-1,6-diazabicyclo[3.2.1]octan-6-yl hydrogen sulfate] here?
A: more active than Avibactam

Q: Which “activity … compared with Avibactam” value does the source give for `O=C1N2C[C@@H](CC[C@H]2c2nnc(CCCN3CCNCC3)o2)N1OS(=O)(=O)O` [Compound 792, (2S,5R)-7-oxo-2-(5-(3-(piperazin-1-yl)propyl)-1,3,4-oxadiazol-2-yl)-1,6-diazabicyclo[3.2.1]octan-6-yl hydrogen sulfate] here?
A: more active than Avibactam

Q: How did the “activity … compared with Avibactam” value turn out when `O=C1N2C[C@@H](CC[C@H]2c2nnc(N3CCNCC3)s2)N1OS(=O)(=O)O` [Compound 797, (2S,5R)-7-oxo-2-(5-(piperazin-1-yl)-1,3,4-thiadiazol-2-yl)-1,6-diazabicyclo[3.2.1]octan-6-yl hydrogen sulfate] was run?
A: more active than Avibactam
